What was measured:
[1] = target: T1, CYP3A4 (Homo sapiens, UniProt P08684); assay: Phase 1 interaction study, sotorasib with multiple doses of rifampin (strong CYP3A4 inducer); format: in vivo; design: from tissue; host or cells: in vivo, healthy human subjects (liver or gut enzyme)
[2] = test system: NSCLC adenocarcinoma (stage IV); assay: Dose comparison study, tumor response (RECIST 1.1) at 240 mg once daily; format: in vivo, human
Description: The extent of disease is evaluated by contrast-enhanced MRI/CT according to RECIST 1.1, as described below. In order to reduce radiation exposure for subjects, low dose CT should be utilized whenever possible.

[3] = Common adverse events during Phase 2 Study; format: in vivo, human
[4] = Phase 1 interaction study, sotorasib with omeprazole, fasted conditions; format: in vivo, human
[5] = clinical; settings: human, in vivo, oral
[6] = Phase 1 interaction study, sotorasib with famotidine or omeprazole, fed conditions; format: in vivo, human
Description: Safety and tolerability monitoring was performed throughout the study.

[7] = Dose comparison study 960 mg QD vs 240 mg QD, pharmacokinetics; settings: for AUC0-24h: GeoMean
[8] = test system: phosphorylation of extracellular signal-regulated kinase (ERK); settings: preclinical studies; cited from earlier work
[9] = Sotorasib dose reduction and discontinuation (safety analysis set); settings: for Discontinuation reason: Adverse event / Discontinuation reason: Death / Discontinuation reason: Disease progression / Subjects who discontinued sotorasib: subjects with any dose reduction;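 as to all read-outs here: counts of patients in the safety analysis set, where lowering the dose was allowed upon certain adverse events such as hepatotoxicity, nausea or vomiting and diarrhea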
[10] = target: T2, OATP1B1 (Homo sapiens, UniProt Q9Y6L6); assay: Phase 1 interaction study, sotorasib with single dose of rifampin; format: in vivo
T2 construct: from tissue
T2 sequence (Q9Y6L6 1-691): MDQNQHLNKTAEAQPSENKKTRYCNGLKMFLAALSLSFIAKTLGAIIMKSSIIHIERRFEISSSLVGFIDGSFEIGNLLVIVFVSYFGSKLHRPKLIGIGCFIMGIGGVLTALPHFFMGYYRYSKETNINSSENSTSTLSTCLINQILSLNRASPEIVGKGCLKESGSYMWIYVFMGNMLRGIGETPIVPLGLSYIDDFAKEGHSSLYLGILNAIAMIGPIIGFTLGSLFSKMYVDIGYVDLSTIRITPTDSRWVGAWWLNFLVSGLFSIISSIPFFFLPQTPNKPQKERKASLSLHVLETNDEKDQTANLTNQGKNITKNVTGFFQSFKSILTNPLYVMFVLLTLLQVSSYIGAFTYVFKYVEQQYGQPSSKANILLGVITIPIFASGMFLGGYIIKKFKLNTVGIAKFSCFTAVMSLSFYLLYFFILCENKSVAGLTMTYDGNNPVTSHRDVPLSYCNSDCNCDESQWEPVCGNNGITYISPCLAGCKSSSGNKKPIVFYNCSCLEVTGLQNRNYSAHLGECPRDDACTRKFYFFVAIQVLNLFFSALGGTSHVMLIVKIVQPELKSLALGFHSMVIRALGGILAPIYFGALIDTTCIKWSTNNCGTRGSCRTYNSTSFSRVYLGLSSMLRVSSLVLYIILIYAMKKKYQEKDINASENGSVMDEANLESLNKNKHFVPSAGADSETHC

[11] = target: T3, P-gp (Homo sapiens, UniProt P08183)
Description: (§1) Blood samples for digoxin PK were collected predose and up to 144 hours post-digoxin dose. Samples were measured using validated high-performance liquid chromatography tandem mass spectrometry methods. PK parameters were estimated using non-compartmental methods.

[12] = target: T3, P-gp; assay: clinical; settings: plasma, 0.5 mg
Description: as §1

[13] = target: T1, CYP3A4; assay: Phase 1 interaction study, midazolam (CYP3A4 substrate) with sotorasib; settings: 2 mg midazolam with 960 mg sotorasib after 14 days daily sotorasib vs midazolam alone
[14] = with omeprazole vs sotorasib alone, fasted state
[15] = famotidine 10 hours prior to and 2 hours after sotorasib
[16] = 427 subjects, sotorasib monotherapy, any tumor type and any dose
[17] = Any tumor types 180 mg QD fasted (n = 6)
[18] = Any tumor types 360 mg QD fasted (n = 27)
[19] = Any tumor types 480 mg BID fed (n = 26)
[20] = Any tumor types 720 mg QD fasted (n = 11)
[21] = Any tumor types 960 mg QD fasted (n = 339)
[22] = Any tumor types 960 mg QD fed (n = 18)
[23] = Total any tumor types and any dose (n = 427)
[24] = of the 56 subjects who had a dose reduction
[25] = Total any tumor types and any dose (N = 56)
[26] = 0.5 mg digoxin, 960 mg sotorasib
[27] = with a single dose of sotorasib vs digoxin alone

T3 sequence (P08183 whole entry): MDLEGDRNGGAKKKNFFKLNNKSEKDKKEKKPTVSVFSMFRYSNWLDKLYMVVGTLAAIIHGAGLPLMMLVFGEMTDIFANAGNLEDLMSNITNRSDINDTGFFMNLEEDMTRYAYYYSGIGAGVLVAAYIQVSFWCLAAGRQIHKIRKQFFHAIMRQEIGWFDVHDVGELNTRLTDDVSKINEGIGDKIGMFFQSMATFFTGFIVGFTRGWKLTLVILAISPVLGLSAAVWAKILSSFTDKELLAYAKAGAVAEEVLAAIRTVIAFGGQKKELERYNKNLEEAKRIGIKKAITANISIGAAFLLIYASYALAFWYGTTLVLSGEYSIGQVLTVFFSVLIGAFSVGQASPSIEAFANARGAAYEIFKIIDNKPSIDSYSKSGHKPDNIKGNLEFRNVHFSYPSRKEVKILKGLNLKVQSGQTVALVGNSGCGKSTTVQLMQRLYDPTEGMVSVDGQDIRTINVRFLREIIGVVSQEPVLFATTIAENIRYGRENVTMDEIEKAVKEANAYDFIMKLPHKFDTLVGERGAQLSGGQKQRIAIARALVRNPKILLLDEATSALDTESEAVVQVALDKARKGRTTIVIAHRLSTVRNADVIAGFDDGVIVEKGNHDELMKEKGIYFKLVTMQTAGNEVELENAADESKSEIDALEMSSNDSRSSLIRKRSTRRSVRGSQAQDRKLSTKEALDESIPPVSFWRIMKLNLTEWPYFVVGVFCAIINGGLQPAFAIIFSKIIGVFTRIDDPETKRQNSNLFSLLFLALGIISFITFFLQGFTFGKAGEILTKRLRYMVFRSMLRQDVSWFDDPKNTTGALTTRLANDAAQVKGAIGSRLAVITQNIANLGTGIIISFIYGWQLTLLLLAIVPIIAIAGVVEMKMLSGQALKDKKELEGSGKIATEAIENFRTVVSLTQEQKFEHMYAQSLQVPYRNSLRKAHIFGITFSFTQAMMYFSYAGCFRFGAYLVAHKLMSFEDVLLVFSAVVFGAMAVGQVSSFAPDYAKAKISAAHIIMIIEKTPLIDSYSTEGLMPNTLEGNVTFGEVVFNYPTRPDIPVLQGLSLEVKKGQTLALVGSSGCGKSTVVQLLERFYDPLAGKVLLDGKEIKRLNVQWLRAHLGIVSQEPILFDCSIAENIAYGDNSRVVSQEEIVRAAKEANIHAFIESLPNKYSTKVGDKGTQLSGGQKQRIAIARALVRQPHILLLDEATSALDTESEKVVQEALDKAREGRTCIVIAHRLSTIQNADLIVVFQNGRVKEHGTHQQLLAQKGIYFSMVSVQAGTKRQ
T1 sequence (P08684 whole entry): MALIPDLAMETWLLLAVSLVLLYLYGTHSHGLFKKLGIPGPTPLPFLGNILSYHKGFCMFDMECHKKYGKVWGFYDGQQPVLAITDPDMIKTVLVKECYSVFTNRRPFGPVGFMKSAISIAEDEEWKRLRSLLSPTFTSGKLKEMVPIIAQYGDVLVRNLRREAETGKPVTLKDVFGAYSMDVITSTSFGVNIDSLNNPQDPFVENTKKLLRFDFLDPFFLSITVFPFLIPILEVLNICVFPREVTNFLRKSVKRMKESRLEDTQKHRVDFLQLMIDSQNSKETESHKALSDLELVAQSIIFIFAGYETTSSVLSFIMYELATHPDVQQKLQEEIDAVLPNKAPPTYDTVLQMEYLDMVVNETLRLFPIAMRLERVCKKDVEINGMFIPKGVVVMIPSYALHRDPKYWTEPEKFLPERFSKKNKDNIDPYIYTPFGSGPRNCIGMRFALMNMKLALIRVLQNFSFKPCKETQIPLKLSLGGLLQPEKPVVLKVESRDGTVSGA

Structure (SMILES): C=CC(=O)N1CCN(c2nc(=O)n(-c3c(C)ccnc3C(C)C)c3nc(-c4c(O)cccc4F)c(F)cc23)[C@@H](C)C1 (atropisomer, axis not shown; (M)) [sotorasib, 6-fluoro-7-(2-fluoro-6-hydroxyphenyl)-(1M)-1-[4-methyl-2-(propan-2-yl)pyridin-3-yl]-4-[(2S)-2-methyl-4-(prop-2-enoyl)piperazin-1-yl]pyrido[2,3-d]pyrimidin-2(1H)-one]
- Geometric mean sotorasib AUOnf ([1]; 960 mg sotorasib with multiple doses of rifampin 600 mg): 12400 ng·h/mL
- safety and tolerability ([1]; coadministered with 600 mg rifampin or alone, healthy subjects): safe and well tolerated
- CYP3A4 substrate status ([1]; concluded from multiple doses of rifampin): is a CYP3A4 substrate
- AUC(0-inf) ([1]; human, plasma, 960 mg): 25600 ng·h/mL
- Cmax ([1]; human, plasma, 960 mg): 6350 ng/mL
- decrease of sotorasib AUOnf ([1]; multiple doses of rifampin): 51%
- decrease of sotorasib Cmax ([1]; multiple doses of rifampin): 35%
- tumor response ([2]; one patient, after cycle 3 and 5): stable disease (SD)
- tumor response ([2]; other patient, after cycle 9): progression disease (PD)
- tumor response ([2]; other patient, after cycles 3, 5, and 7): partial response (PR)
- tumor response ([2]; same patient, after cycles 7 and 9): partial response (PR)
- Abdominal pain, ALL GRADES [3]: 15%
- Abdominal pain, GRADE 3 TO 4 [3]: 1.0%
- Arthalgia, ALL GRADES [3]: 12%
- Arthalgia, GRADE 3 TO 4 [3]: 1.0%
- Constipation, ALL GRADES [3]: 16%
- Constipation, GRADE 3 TO 4 [3]: 0.5%
- Cough, ALL GRADES [3]: 20%
- Cough, GRADE 3 TO 4 [3]: 1.5%
- Decreased appetite, ALL GRADES [3]: 13%
- Decreased appetite, GRADE 3 TO 4 [3]: 1.0%
- Diarrhea, ALL GRADES [3]: 42%
- Diarrhea, GRADE 3 TO 4 [3]: 5%
- Dyspnea, ALL GRADES [3]: 16%
- Dyspnea, GRADE 3 TO 4 [3]: 2.9%
- Fatigue, ALL GRADES [3]: 25%
- Fatigue, GRADE 3 TO 4 [3]: 2.0%
- Headache, ALL GRADES [3]: 10%
- Headache, GRADE 3 TO 4 [3]: 0%
- Hepatotoxicity, ALL GRADES [3]: 25%
- Hepatotoxicity, GRADE 3 TO 4 [3]: 12%
- Musculoskeletal pain, ALL GRADES [3]: 35%
- Musculoskeletal pain, GRADE 3 TO 4 [3]: 2.0%
- Nausea, ALL GRADES [3]: 26%
- Nausea, GRADE 3 TO 4 [3]: 1.0%
- Pneumonia, ALL GRADES [3]: 12%
- Pneumonia, GRADE 3 TO 4 [3]: 7%
- Rash, ALL GRADES [3]: 12%
- Rash, GRADE 3 TO 4 [3]: 0%
- Vomiting, ALL GRADES [3]: 17%
- Vomiting, GRADE 3 TO 4 [3]: 1.5%
- sotorasib time to maximal plasma concentration (Lx) delayed by ([4]; 960 mg sotorasib with 40 mg omeprazole vs alone, fasted, healthy subjects): 0.75 h
- Mean terminal half-life (ty2) of sotorasib with omeprazole compared to alone ([4]; 960 mg sotorasib, 40 mg omeprazole, fasted): similar
- safety and tolerability ([4]; coadministered with 40 mg omeprazole or alone, healthy subjects): safe and well tolerated
- AUC(0-inf) ([4]; human, plasma, 960 mg): 29300 ng·h/mL
- decrease of sotorasib AUCinf [4, 14]: 42%
- decrease of sotorasib Cmax [4, 14]: 57%
- Tmax ([5]; 240 mg): 4 h
- Tmax ([5]; 960 mg): 4 h
- safety and tolerability ([6]; 960 mg with 40 mg famotidine single dose or 40 mg omeprazole multiple daily dosing, healthy subjects): safe and well tolerated
- decrease of sotorasib AUC [6, 15]: 38%
- decrease of sotorasib Cmax [6, 15]: 35%
- decrease of sotorasib AUC ([6]; repeat doses of omeprazole): 57%
- decrease of sotorasib Cmax ([6]; repeat doses of omeprazole): 65%
- Tmax ([7]; 240 mg, Day 1, Median): 1.0 h
- AUC0-24h ([7]; 240 mg, Day 8): 36300 ng·h/mL
- AUC0-24h ([7]; 960 mg, Day 1): 85000 ng·h/mL
- mean exposures (Cmax and AUC0-24h) following 960 mg compared to 240 mg ([7]; Day 1 and Day 8): numerically higher
- Exposures on Day 8 lower than on Day 1 ([7]; both 240 mg and 960 dosing): 30-40%
- phosphorylation of ERK [8]: inhibited nearly all detectable phosphorylation
- subjects with a dose reduction [9, 16]: 13.1%
- subjects with dose reduction due to adverse events (AEs) [9, 16]: 10.8%
- Number of subjects with any dose reduction [9, 17]: 0 (0.0) n (%)
- Primary reason for dose reduction: Adverse event [9, 17]: 0 (0.0) n (%)
- Number of subjects with any dose reduction [9, 18]: 3 (11.1) n (%)
- Primary reason for dose reduction: Adverse event [9, 18]: 3 (11.1) n (%)
- Number of subjects with any dose reduction [9, 19]: 3 (11.5) n (%)
- Primary reason for dose reduction: Adverse event [9, 19]: 2 (7.7) n (%)
- Number of subjects with any dose reduction [9, 20]: 2 (18.2) n (%)
- Primary reason for dose reduction: Adverse event [9, 20]: 1 (9.1) n (%)
- Number of subjects with any dose reduction [9, 21]: 36 (13.6) n (%)
- Primary reason for dose reduction: Adverse event [9, 21]: 38 (11.2) n (%)
- Number of subjects with any dose reduction [9, 22]: 2 (11.1) n (%)
- Primary reason for dose reduction: Adverse event [9, 22]: 2 (11.1) n (%)
- Number of subjects with any dose reduction [9, 23]: 56 (13.1) n (%)
- Primary reason for dose reduction: Adverse event [9, 23]: 46 (10.8) n (%)
- subjects who discontinued due to progression of disease [9, 24]: 44.6%
- subjects who discontinued treatment with sotorasib [9, 24]: 69.6%
- subjects whose reason to discontinue was due to AEs [9, 24]: 21.4%
- Discontinuation reason: Adverse event ([9]; 180 mg QD fasted (N = 0)): 0 (0.0) n (%)
- Discontinuation reason: Death ([9]; 180 mg QD fasted (N = 0)): 0 (0.0) n (%)
- Discontinuation reason: Disease progression ([9]; 180 mg QD fasted (N = 0)): 0 (0.0) n (%)
- Subjects who discontinued sotorasib ([9]; 180 mg QD fasted (N = 0)): 0 (−) n (%)
- Discontinuation reason: Adverse event ([9]; 360 mg QD fasted (N = 3)): 0 (0.0) n (%)
- Discontinuation reason: Death ([9]; 360 mg QD fasted (N = 3)): 0 (0.0) n (%)
- Discontinuation reason: Disease progression ([9]; 360 mg QD fasted (N = 3)): 2 (66.7) n (%)
- Subjects who discontinued sotorasib ([9]; 360 mg QD fasted (N = 3)): 2 (66.7) n (%)
- Discontinuation reason: Adverse event ([9]; 480 mg BID fed (N = 3)): 2 (66.7) n (%)
- Discontinuation reason: Death ([9]; 480 mg BID fed (N = 3)): 0 (0.0) n (%)
- Discontinuation reason: Disease progression ([9]; 480 mg BID fed (N = 3)): 0 (0.0) n (%)
- Subjects who discontinued sotorasib ([9]; 480 mg BID fed (N = 3)): 2 (66.7) n (%)
- Discontinuation reason: Adverse event ([9]; 720 mg QD fasted (N = 2)): 0 (0.0) n (%)
- Discontinuation reason: Death ([9]; 720 mg QD fasted (N = 2)): 0 (0.0) n (%)
- Discontinuation reason: Disease progression ([9]; 720 mg QD fasted (N = 2)): 2 (100.0) n (%)
- Subjects who discontinued sotorasib ([9]; 720 mg QD fasted (N = 2)): 2 (100.0) n (%)
- Discontinuation reason: Adverse event ([9]; 960 mg QD fasted (N = 46)): 9 (19.6) n (%)
- Discontinuation reason: Death ([9]; 960 mg QD fasted (N = 46)): 0 (0.0) n (%)
- Discontinuation reason: Disease progression ([9]; 960 mg QD fasted (N = 46)): 21 (45.7) n (%)
- Subjects who discontinued sotorasib ([9]; 960 mg QD fasted (N = 46)): 32 (69.6) n (%)
- Discontinuation reason: Adverse event ([9]; 960 mg QD fed (N = 2)): 1 (50.0) n (%)
- Discontinuation reason: Death ([9]; 960 mg QD fed (N = 2)): 0 (0.0) n (%)
- Discontinuation reason: Disease progression ([9]; 960 mg QD fed (N = 2)): 0 (0.0) n (%)
- Subjects who discontinued sotorasib ([9]; 960 mg QD fed (N = 2)): 1 (50.0 n (%)
- Discontinuation reason: Adverse event [9, 25]: 12 (21.4) n (%)
- Discontinuation reason: Death [9, 25]: 0 (0.0) n (%)
- Discontinuation reason: Disease progression [9, 25]: 25 (44.6) n (%)
- Subjects who discontinued sotorasib [9, 25]: 39 (69.6) n (%)
- OATP1B1 substrate status ([10]; concluded from single dose rifampin): not a substrate of OATP1B1
- effect of single dose of rifampin on sotorasib PK ([10]; single dose rifampin): did not have a clinically meaningful effect

Structure (SMILES): C[C@H]1O[C@@H](O[C@H]2[C@@H](O)C[C@H](O[C@H]3[C@@H](O)C[C@H](O[C@H]4CC[C@@]5(C)[C@H](CC[C@@H]6[C@@H]5C[C@@H](O)[C@]5(C)[C@@H](C7=CC(=O)OC7)CC[C@]65O)C4)O[C@@H]3C)O[C@@H]2C)C[C@H](O)[C@@H]1O [digoxin]
- Digoxin mean terminal half-life (t1/2) with sotorasib compared to alone [11, 26]: similar
- Digoxin median time to maximal plasma concentration (tmax) with sotorasib compared to alone [11, 26]: similar
- safety and tolerability ([11]; single doses of 0.5 mg digoxin alone or with 960 mg sotorasib): safe and well tolerated
- increase of digoxin AUCinf [11, 27]: approximately 21%
- increase of digoxin Cmax [11, 27]: ~91%
- AUC(0-inf) [12]: 33.2 ng·h/mL
- Cmax [12]: 1.9 ng/mL

Structure (SMILES): Cc1ncc2n1-c1ccc(Cl)cc1C(c1ccccc1F)=NC2 [midazolam]
- decrease of midazolam AUV [13]: 53%
- decrease of midazolam Cmax [13]: 48%
